Test results taken from patent publication US11897865B2, “ABHD12 inhibitors and methods of making and using same” (THE SCRIPPS RESEARCH INSTITUTE, priority 2018, dated 2024).

Target: T1, ABHD12 (Mus musculus, UniProt Q99LR1)
T1 construct: from tissue; host or cells: brain membrane proteome
T1 sequence (Q99LR1 1-398): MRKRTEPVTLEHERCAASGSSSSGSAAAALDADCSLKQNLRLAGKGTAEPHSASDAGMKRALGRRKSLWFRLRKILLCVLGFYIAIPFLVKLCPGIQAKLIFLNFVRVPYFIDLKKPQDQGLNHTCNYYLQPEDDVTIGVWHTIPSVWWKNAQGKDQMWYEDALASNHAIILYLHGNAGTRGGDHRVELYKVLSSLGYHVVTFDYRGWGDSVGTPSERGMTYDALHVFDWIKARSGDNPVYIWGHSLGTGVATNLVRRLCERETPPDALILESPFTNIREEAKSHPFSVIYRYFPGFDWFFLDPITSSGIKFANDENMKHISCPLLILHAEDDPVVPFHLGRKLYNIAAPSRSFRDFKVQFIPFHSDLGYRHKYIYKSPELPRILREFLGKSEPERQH
Assay: Gel-based competitive ABPP, JJH350 probe vs brain membrane proteome
Assay type: biochemical
Conditions: 10 μM compound, read-out: % Inhibition @ 10 μM (ABPP gel_JJH350 probe vs brain mem)
Procedure: Gel-Based Competitive ABPP for In Vitro Inhibitor Treatment of Proteomes:
Gel-based ABPP assays were performed as previously reported (Bachovchin, D. A. et al. Superfamily-wide portrait of serine hydrolase inhibition achieved by library-versus-library screening. Proc. Natl. Acad. Sci. U. S. A. 2010, 107, 20941-20946). Cell or tissue proteomes (50 μL, 1 mg/mL) were treated with either FP-Rh (1 μM final concentration) or JJH350 (2 μM final concentration) for 45 min at 37° C. For FP-Rh labeled samples, the reactions were quenched by adding 20 μL of 4× SDS-PAGE loading buffer. The 30 μL of the quenched samples were loaded on gel for analysis. For (S)-1,3-dioxo-7-(4-phenoxybenzoyl)hexahydroimidazo[1,5-a]pyrazin-2(3H)-yl 4-(4-(prop-2-yn-1-yloxy)phenyl)piperazine-1-carboxylate (JJH350)-labeled samples, copper-catalyzed azide-alkyne cycloaddition (CuAAC) was used for visualizing the labeled proteins following the reported protocol. Briefly, rhodamine-PEG3-N3 (1 μL/reaction, 1.25 mM in DMSO), CuSO4 (1 μL/reaction, 50 mM in H2O), TBTA (3 μL/reaction, 1.7 mM in DMSO/t-BuOH [1:4, v/v]) and tris(2-carboxyethyi)phosphine (TCEP) (1 μL/reaction, 50 mM in H2O, freshly prepared) were premixed. 6 μL of this click reagent mixture was immediately added to each JJH350-labeled samples (50 μL, 1 mg/mL) and incubated for 1 h at room temperature. The reactions were quenched by adding 20 μL of 4× SDS-PAGE loading buffer. The 40 μL of the quenched samples were loaded on a gel for analysis.
After separation by SDS-PAGE (10% acrylamide), samples were visualized by in-gel fluorescence scanning using the ChemiDoc MP system (Bio-Rad). Band intensities were quantified using the Image Lab (5.2.1) software (Bio-Rad).

| SMILES | inhibition at 10 µM [%] |
| --- | --- |
| FC(F)(F)Oc1cccc(Oc2ccnc(N3CCC(NC(=S)Nc4cccnc4)CC3)c2)c1 [Example 49, 1-(Pyridin-3-yl)-3-(1-(4-(3-(trifluoromethoxy)phenoxy)pyridin-2-yl)piperidin-4-yl)thiourea] | ≥ 75 |
| Cc1cnc(N2CCC(NC(=S)Nc3cccnc3)CC2)c(Cl)c1 [Example 8, 1-(1-(3-Chloro-5-methylpyridin-2-yl)piperidin-4-yl)-3-(pyridin-3-yl)thiourea] | ≥ 75 |
| FC(F)Oc1ccc(Oc2ccnc(N3CCC(NC(=S)Nc4cccnc4)CC3)c2)cc1 [Example 62, 1-(1-(4-(4-(Difluoromethoxy)phenoxy)pyridin-2-yl)piperidin-4-yl)-3-(pyridin-3-yl)thiourea] | ≥ 75 |
| FC(F)(F)Oc1cccc(-c2ccnc(N3CCC(NC(=S)Nc4cccnc4)CC3)c2)c1 [Example 23, 1-(Pyridin-3-yl)-3-(1-(4-(3-(trifluoromethoxy)phenyl)pyridin-2-yl)piperidin-4-yl)thiourea] | ≥ 75 |
| FC(F)(F)CCCOc1ccnc(N2CCC(NC(=S)Nc3cccnc3)CC2)c1 [Example 34, 1-(Pyridin-3-yl)-3-(1-(4-(4,4,4-trifluorobutoxy)pyridin-2-yl)piperidin-4-yl)thiourea] | ≥ 75 |
| FC(F)(F)c1ccccc1-c1ccnc(N2CCC(NC(=S)Nc3cccnc3)CC2)c1 [Example 24, 1-(pyridin-3-yl)-3-(1-(4-(2-(trifluoromethyl)phenyl)pyridin-2-yl)piperidin-4-yl)thiourea] | 50 to 75 |
| FC(F)(F)Oc1ccc(COc2ccnc(N3CCC(NC(=S)Nc4cccnc4)CC3)c2)cc1 [Example 39, 1-(Pyridin-3-yl)-3-(1-(4-((4-(trifluoromethoxy)benzyl)oxy)pyridin-2-yl)piperidin-4-yl)thiourea] | ≥ 75 |
| S=C(Nc1cccnc1)NC1CCN(c2cc(OCCC3CC3)ccn2)CC1 [Example 33, 1-(1-(4-(2-Cyclopropylethoxy)pyridin-2-yl)piperidin-4-yl)-3-(pyridin-3-yl)thiourea] | ≥ 75 |
| Fc1ccc(COc2ccnc(N3CCC(NC(=S)Nc4cccnc4)CC3)c2)cc1F [Example 42, 1-(1-(4-((3,4-Difluorobenzyl)oxy)pyridin-2-yl)piperidin-4-yl)-3-(pyridin-3-yl)thiourea] | ≥ 75 |
| Fc1ccc(COc2ccnc(N3CCC(NC(=S)Nc4cccnc4)CC3)c2)cc1 [Example 38, 1-(1-(4-((4-Fluorobenzyl)oxy)pyridin-2-yl)piperidin-4-yl)-3-(pyridin-3-yl)thiourea] | ≥ 75 |
| FC(F)(F)Oc1ccc(-c2ccnc(N3CCC(NC(=S)Nc4cccnc4)CC3)c2)cc1 [Example 22, 1-(Pyridin-3-yl)-3-(1-(4-(4-(trifluoromethoxy)phenyl)pyridin-2-yl)piperidin-4-yl)thiourea] | ≥ 75 |
| Fc1ccc(-c2ccnc(N3CCC(NC(=S)Nc4cccnc4)CC3)c2)cc1F [Example 48, 1-(1-(4-(3,4-Difluorophenyl)pyridin-2-yl)piperidin-4-yl)-3-(pyridin-3-yl)thiourea] | ≥ 75 |
| FC(F)(F)c1cnc(N2CCCC(NC(=S)Nc3cccnc3)CC2)c(Cl)c1 (stereo not drawn) [Example 80, 1-(1-(3-Chloro-5-(trifluoromethyl)pyridin-2-yl)azepan-4-yl)-3-(pyridin-3-yl)thiourea] | 50 to 75 |
| FC(F)(F)c1cnc(NCCCCCNC(=S)Nc2cccnc2)c(Cl)c1 [Example 81, 1-(5-((3-Chloro-5-(trifluoromethyl)pyridin-2-yl)amino)pentyl)-3-(pyridin-3-yl)thiourea] | ≥ 75 |
| FC(F)COc1ccnc(N2CCC(NC(=S)Nc3cccnc3)CC2)c1 [Example 32, 1-(1-(4-(2,2-Difluoroethoxy)pyridin-2-yl)piperidin-4-yl)-3-(pyridin-3-yl)thiourea] | 50 to 75 |
| Fc1ccc(N2CCC(NC(=S)Nc3cccnc3)CC2)nc1 [Example 12, 1-(1-(5-Fluoropyridin-2-yl)piperidin-4-yl)-3-(pyridin-3-yl)thiourea] | ≥ 75 |
| FC(F)(F)c1cnc(N2[C@@H]3CC[C@H]2CC(NC(=S)Nc2cccnc2)C3)c(Cl)c1 (stereo partly drawn) [Example 85, 1-((1R,5S)-8-(3-Chloro-5-(trifluoromethyl)pyridin-2-yl)-8-azabicyclo[3.2.1]octan-3-yl)-3-(pyridin-3-yl)thiourea] | 50 to 75 |
| Fc1cc(Oc2ccnc(N3CCC(NC(=S)Nc4cccnc4)CC3)c2)ccc1OC(F)(F)F [Example 56, 1-(1-(4-(3-Fluoro-4-(trifluoromethoxy)phenoxy)pyridin-2-yl)piperidin-4-yl)-3-(pyridin-3-yl)thiourea] | ≥ 75 |
| FC(F)(F)c1cnc(NCCCCNC(=S)Nc2cccnc2)c(Cl)c1 [Example 83, 1-(4-((3-Chloro-5-(trifluoromethyl)pyridin-2-yl)amino)butyl)-3-(pyridin-3-yl)thiourea] | 25 to 50 |
| FC(F)(F)c1cnc(N2CCC(NC(=S)Nc3cccnc3)CC2)nc1 [Example 78, 1-(Pyridin-3-yl)-3-(1-(5-(trifluoromethyl)pyrimidin-2-yl)piperidin-4-yl)thiourea] | 50 to 75 |
| S=C(Nc1cccnc1)NC1CCN(c2cc(-c3ccccc3)ccn2)CC1 [Example 45, 1-(1-(4-Phenylpyridin-2-yl)piperidin-4-yl)-3-(pyridin-3-yl)thiourea] | 25 to 50 |
| FC(F)(F)c1cccc(Oc2ccnc(N3CCC(NC(=S)Nc4cccnc4)CC3)c2)c1 [Example 52, 1-(Pyridin-3-yl)-3-(1-(4-(3-(trifluoromethyl)phenoxy)pyridin-2-yl)piperidin-4-yl)thiourea] | ≥ 75 |
| FC(F)(F)c1cnc(NCCCCCCNC(=S)Nc2cccnc2)c(Cl)c1 [Example 84, 1-(6-((3-Chloro-5-(trifluoromethyl)pyridin-2-yl)amino)hexyl)-3-(pyridin-3-yl)thiourea] | 50 to 75 |
| S=C(Nc1cccnc1)NC1CCN(c2cc(OCc3ccccc3)ccn2)CC1 [Example 37, 1-(1-(4-(Benzyloxy)pyridin-2-yl)piperidin-4-yl)-3-(pyridin-3-yl)thiourea] | ≥ 75 |
| CCCCCc1ccc(Oc2ccnc(N3CCC(NC(=S)Nc4cccnc4)CC3)c2)cc1 [Example 61, 1-(1-(4-(4-Pentylphenoxy)pyridin-2-yl)piperidin-4-yl)-3-(pyridin-3-yl)thiourea] | ≥ 75 |
| FC(F)(F)Oc1ccccc1Oc1ccnc(N2CCC(NC(=S)Nc3cccnc3)CC2)c1 [Example 50, 1-(Pyridin-3-yl)-3-(1-(4-(2-(trifluoromethoxy)phenoxy)pyridin-2-yl)piperidin-4-yl)thiourea] | ≥ 75 |

Same assay, conditions: at 2 uM compound

| SMILES | % Inhibition (ABPP gel_JJH350 probe vs brain mem), at 2 uM |
| --- | --- |
| C#Cc1cnc(N2CCC(NC(=S)Nc3cccnc3)CC2)c(Cl)c1 [Example 20, 1-(1-(3-Chloro-5-ethynylpyridin-2-yl)piperidin-4-yl)-3-(pyridin-3-yl)thiourea] | B (at 2 uM) (% inhibition is greater than or equal to 50% and less than 75%) |

Same assay, conditions: read-out: IC50 (ABPP gel_JJH350 probe vs brain mem)

| SMILES | IC50 [nM] |
| --- | --- |
| Fc1cc(Oc2ccnc(N3CCC(NC(=S)Nc4cccnc4)CC3)c2Cl)ccc1OC(F)(F)F [Example 64, 1-(1-(3-Chloro-4-(3-fluoro-4-(trifluoromethoxy)phenoxy)pyridin-2-yl)piperidin-4-yl)-3-(pyridin-3-yl)thiourea] | ≤ 100 |
| O=C(Nc1cccnc1)NC1CCN(c2nccc(Oc3ccc(OC(F)(F)F)cc3Cl)c2Cl)CC1 [Example 6, 1-(1-(3-Chloro-4-(2-chloro-4-(trifluoromethoxy)phenoxy)pyridin-2-yl)piperidin-4-yl)-3-(pyridin-3-yl)urea] | 100 to 1000 |
| Cc1cc(Oc2ccnc(N3CCC(NC(=S)Nc4cccnc4)CC3)c2Cl)ccc1F [Example 70, 1-(1-(3-Chloro-4-(4-fluoro-3-methylphenoxy)pyridin-2-yl)piperidin-4-yl)-3-(pyridin-3-yl)thiourea] | 100 to 1000 |
| Cc1cc(OC(F)(F)F)ccc1Oc1ccnc(N2CCC(NC(=S)Nc3cccnc3)CC2)c1Cl [Example 73, 1-(1-(3-Chloro-4-(2-methyl-4-(trifluoromethoxy)phenoxy)pyridin-2-yl)piperidin-4-yl)-3-(pyridin-3-yl)thiourea] | ≤ 100 |
| S=C(Nc1cccnc1)NC1CCN(c2cc(-c3ccccc3)ccn2)CC1 [Example 45, 1-(1-(4-Phenylpyridin-2-yl)piperidin-4-yl)-3-(pyridin-3-yl)thiourea] | 1000 to 25000 |
| S=C(Nc1cccnc1)NC1CCN(c2cc(OCc3ccccc3)ccn2)CC1 [Example 37, 1-(1-(4-(Benzyloxy)pyridin-2-yl)piperidin-4-yl)-3-(pyridin-3-yl)thiourea] | 1000 to 25000 |
